Test system: dapE- H. pylori mutant
Format: cell-based, Helicobacter pylori

## N[C@H](CCC[C@H](N)C(=O)O)C(=O)O [DAP, diaminopimelic acid]
  Minimum DAP concentration required for survival of the dapE− mutant: 0.2 mM

Reference: US6570004B1 (priority 1996, dated 2003)
